Results as given in BindingDB's records for doi:10.1016/s0960-894x(02)00064-1 (University of Lyon 1, 2002).

Columns and labels:
[1] = biological target: Toxoplasma gondii purine nucleoside phosphorylase (Toxoplasma gondii); test: Compound was evaluated for its binding affinity against Toxoplasma gondii purine nucleoside phosphorylase of virulent strain RH (value indicates competitive inhibition)
[2] = biological target: Toxoplasma gondii purine nucleoside phosphorylase (Toxoplasma gondii); test: as above; remark: listed apart in the source
[3] = biological target: Toxoplasma gondii purine nucleoside phosphorylase (Toxoplasma gondii); test: Compound was evaluated for its binding affinity against Toxoplasma gondii purine nucleoside phosphorylase of virulent strain RH (value indicates Non competitive inhibition)
[4] = biological target: Toxoplasma gondii purine nucleoside phosphorylase (Toxoplasma gondii); test: Compound was evaluated for its binding affinity against Toxoplasma gondii purine nucleoside phosphorylase from cystic strain ME 49 (value indicates Non competitive inhibition)
[5] = biological target: Toxoplasma gondii purine nucleoside phosphorylase (Toxoplasma gondii); test: Compound was evaluated for its binding affinity against Toxoplasma gondii purine nucleoside phosphorylase from cystic strain ME 49 (value indicates competitive inhibition)

Structure (SMILES) | Ki [1] [µM] | Ki [2] [µM] | Ki [3] [µM] | Ki [4] [µM] | Ki [5] [µM]
O=c1[nH]cnc2c1cnn2[C@@H]1O[C@H](CO)[C@@H](O)[C@H]1O | 1800 | 2000 |  |  | 
CCCCn1cnc2c1C(=O)C=CC2=O [1-Butyl-1H-benzoimidazole-4,7-dione] |  |  | 2960 | 560 | 
O=C1C=CC(=O)c2c1nc(Cc1ccccc1)n2Cc1ccccc1 [1,2-Dibenzyl-1H-benzoimidazole-4,7-dione] | 670 |  |  |  | 350
Cc1nc2c(n1Cc1ccccc1)C(=O)C=CC2=O [1-Benzyl-2-methyl-1H-benzoimidazole-4,7-dione] |  | 1050 |  |  | 300
O=C1C=CC(=O)c2[nH]cnc21 [1H-Benzoimidazole-4,7-dione] |  |  | 1650 | 550 | 
O=C1C=CC(=O)c2c1ncn2Cc1ccccc1F [1-(2-Fluoro-benzyl)-1H-benzoimidazole-4,7-dione] |  |  | 1480 | 1500 | 
O=C1C=CC(=O)c2c1ncn2Cc1ccc(F)cc1 [1-(4-Fluoro-benzyl)-1H-benzoimidazole-4,7-dione] |  |  | 780 | 990 | 
Cn1cnc2c1C(=O)C=CC2=O [1-Methyl-1H-benzoimidazole-4,7-dione] |  |  | 2210 |  | 
O=C1C=CC(=O)c2c1ncn2Cc1cccc(F)c1 [1-(3-Fluoro-benzyl)-1H-benzoimidazole-4,7-dione] |  |  | 990 | 520 | 
